From patent US20040131581A1, “Novel synergistic antimicrobial compositions and methods” (SureCide Technologies, LLC, priority 2001, published 2004)
“Also recorded” adds a separate entry of the source. Where a name gives a salt, the structure may show the parent alone.

Columns and labels:
[1] = test system: Salmonella choleraesuis (strain 10708); assay: Growth of Salmonella in nutrient broth containing treated rice-hull litter, visual examination; format: cell-based; settings: for Growth of Salmonella in the Presence of an Iodophore: Example 7, 7 g litter treated 30 minutes, 0.5 g litter, 24 hrs at 37° C.; for Growth of Salmonella upon litter treated with one or more treatment composition components: Example 4, 7 g litter treated, Tables 5A, 5B, 5C; for Growth of Salmonella upon litter treated with various concentrations of treatment composition: Example 6, litter of Example 4 re-tested, 24 hours at 37° C.
Experimental: . After exposing the litter to the antimicrobial composition, the preparations were filtered and the impregnated litter filtrates were dried and placed in separate culture tubes. Sterile nutrient broth (NB) was added to each tube and appropriate tubes were inoculated with 10^3 cfu/mL of Salmonella. All tubes were incubated overnight and examined visually. Visual interpretation results were confirmed by subculturing all culture tubes to plated media. […]
After soaking, the test preparations were removed from the litter material by vacuum filtration. The wet litter was spread on paper towels and allowed to dry between about 5 hours and overnight, followed by approximately 45 minutes exposure to desiccant.
Each of the treated litter samples was tested in triplicate for the ability to reduce or inhibit growth of an inoculated Salmonella culture. Three aliquots of litter (0.5 g each) from each of the four batches of treated litter (FeCl3/citrate, chitosan, FeCl3/citrate/chitosan, and water) were measured and placed in test tubes, to which 18 mL of microbial nutrient broth (Hardy Diagnostics, Santa Maria Calif.) was added. Control test tubes containing untreated litter (e) and no litter (f) were also prepared.
The tubes containing the treated litter were inoculated with 2 mL of a 10^4 cells/mL stock Salmonella solution (final concentration of 10^3 cells/mL). The inoculated tubes were incubated at 37° C. for 24 hours, then visually examined for positive cell growth. In addition, a sample from each test tube was subcultured onto nutrient and MacConkey agar.

[2] = pH of the litter-containing nutrient broth after incubation; format: physicochemical; settings: for pH of the growth media after incubation in the presence of litter: Example 4; for pH: Example 6, tube solution after 24 hours at 37° C.
Experimental: Two extra tubes were used for positive growth (cells only) and negative growth (no cells) growth controls. 18 ml of NB was added to each tube, and […]. The tubes were incubated for 24 hours at 37° C., after which the pH was measured and the number of tubes for each treatment showing signs of bacterial growth were counted.

Molecule | Growth of Salmonella in the Presence of an Iodophore [1] | pH of the growth media after incubation in the presence of litter [2] | Growth of Salmonella upon litter treated with one or more treatment composition components [1] | Growth of Salmonella upon litter treated with one or more treatment composition components ([1]; listed as acetic acid) | pH [2] | Growth of Salmonella upon litter treated with various concentrations of treatment composition [1]
povidone-iodine complex [.25% PIC] | Growth | – | – | – | – | –
CC(=O)O [Acetic Acid] | – | ~6 | Growth | completely ineffective | – | –
[Cl][Fe]([Cl])[Cl] [50 mM Fe, FeCl3] | – | – | Growth | – | pH 6.3 | Growth
O=C(O)CC(O)(CC(=O)O)C(=O)O [50 mM citrate] | – | – | Growth | – | pH 6.4 | Growth
Cl [HCl] | – | ~6 | completely ineffective; also recorded: Growth | – | – | –
povidone-iodine complex [0.1% PIC] | ineffective | – | – | – | – | –
